US20160202206A1, “Matrix-Enhanced Electrochemical Detector for Pathogenic Bacteria” (NORTHEASTERN UNIVERSITY, priority 2013, published 2016)
Where two headings read alike, the source gives them in different places.

How the values were obtained:
[1] = system: P. aeruginosa strain PA14; assay type: cell-based, Pseudomonas aeruginosa; settings: for time to appearance of a pyocyanin signal: M63 minimal media, versus no added amino acid (nearly 24 hours); for effect on pyocyanin production: M63 minimal media or TSB, single amino acid added (tyrosine 3.2 mM, valine 17.6 mM); for up-regulatory effect on pyocyanin production compared with the other amino acids tested: six amino acids tested, M63 minimal media and TSB, scans over 24 hours
Protocol: All bacterial tests were completed using wild-type P. aeruginosa strain PA14. Cell cultures were routinely grown in trypticase soy broth (TSB) (BD Biosciences 211768) at 37° C. and later stored on TSB agar plates at 4° C. when not in use. All amino acids were purchased from Sigma-Aldrich (St. Louis, Mo.) and dissolved in solution using either TSB or M63 minimal salts medium (Fisher Cat. 50-751-6740) [(NH4)2SO4 (15 mM), KH2PO4 (100 mM)] supplemented with MgSO4 (1 mM) and glycerol (0.027 mM). Electrochemical measurements were performed using commercially available Zensor TE100 (EDAQ ET077) screenprinted electrodes featuring carbon working and counter electrodes. Although the Zensor TE100 electrodes include a silver paste reference, a separate 1 M KCl Ag/AgCl reference electrode (CHI111) was employed to minimize the chances of drift in reference potential during measurements lasting several hours, which can occur when the reference electrode is in direct contact with the sample solution. All electrochemical measurements were recorded using a potentiostat (CHI842C, CH Instruments).
Individual amino acids were dissolved at specific concentrations in either 10 mL of TSB or M63 media. Each solution was inoculated with a specific concentration of P. aeruginosa and incubated at 37 C. […] of each solution was removed at designated time points and loaded onto a Zensor electrode for electrochemical testing. Square-wave voltammetric scans were performed at potentials ranging from −0.4 to −0.1 V at an amplitude voltage of 0.050 V and a frequency of 15 Hz. Scans were performed for each sample three times with three replicates for each tested condition. The data was analyzed using OriginPro 9.1 (OriginLab Corporation). Baselines were created for each data set using spline interpolation with 8 base points. The resulting baseline-subtracted data set was used to determine the max currents observed from pyocyanin production.
Liquid cultures of P. aeruginosa were grown in either M63 minimal media or TSB to observe the effect of amino acid addition on the bacteria's production of pyocyanin using the methods described in Example 2. 10 μL of stock PA14 culture was loaded into 10 mL liquid cultures each containing one of six different amino acids (final concentration of 4 million cells per mL). […] Electrochemical scans were taken roughly every two hours over the course of a 24-hour period.
Tyrosine and valine were prepared at concentrations ranging from those quantified in typical cystic fibrosis infection levels (tyrosine: 0.2 mM, valine: 1.1 mM) to an 80-fold increase, which reached the solubility limit of the amino acids in TSB. The initial concentration of P. aeruginosa loaded in each sample was kept constant at roughly 4 million cells per mL and electrochemical scans were taken every two hours over the course of ten hours. FIGS. 11 A and B show scans taken after eight hours of growth in addition to a control with no amino acid additives. Again, consistent among all scans was the observance of a pyocyanin peak around −0.25 V vs. a Ag/AgCl reference. […] It is possible that valine has an inhibitory effect on pyocyanin production at such high concentrations. While such inhibition has been observed for other molecules (D. J. Musk, D. A. Banko and P. J. Hergenrother, Chem. Biol., 2005, 12, 789-796), P. aeruginosa has not been previously studied at valine concentrations that are over 100 times greater than what is typically found in a pseudomonal infection.
The next set of tests studied how varying the initial P. aeruginosa cell concentration would affect the production of pyocyanin in the presence of amino acids. TSB media was used as the growth media to which tyrosine and valine were added. Tyrosine (16 mM) and valine (17.6 mM) concentrations were held constant while varying amounts of P. aeruginosa were added into the samples (4, 20, 40, 400 million cells per mL). […]

[2] = system: P. aeruginosa cultures; settings: cited from earlier work

| SMILES | time to appearance of a pyocyanin signal [1] | effect on biofilm formation [2] | effect on pyocyanin production ([1]; 4 million cells per mL) | effect of varying amino acid concentration on amounts of pyocyanin produced after the critical time point ([1]; TSB, 4 million cells per mL) | effect of varying amino acid concentration on time needed for cells to up-regulate pyocyanin production ([1]; TSB, 4 million cells per mL) | rate of pyocyanin production, 16 mM tyrosine compared with 17.6 mM valine ([1]; TSB, 4 million cells per mL) | up-regulatory effect on pyocyanin production compared with the other amino acids tested [1] | also measured |
| --- | --- | --- | --- | --- | --- | --- | --- | --- |
| N[C@@H](Cc1c[nH]cn1)C(=O)O [histidine] | significantly less time | up-regulate biofilm formation |  |  |  |  |  |  |
| N=C(N)NCCC[C@H](N)C(=O)O [arginine] |  | up-regulate biofilm formation |  |  |  |  |  |  |
| CC(C)[C@H](N)C(=O)O [valine] |  | up-regulate biofilm formation | up-regulatory effect | significant effect | minimal effect | nearly identical | largest up-regulatory effect of the six amino acids tested | pyocyanin production when concentration raised to 88 mM ([1]; TSB, 88 mM versus 17.6 mM valine): decreased; amino acid concentration giving the largest pyocyanin concentration ([1]; TSB, 4 million cells per mL, eight hours of growth): 17.6 mM |
| N[C@@H](Cc1ccc(O)cc1)C(=O)O [tyrosine] | significantly less time | up-regulate biofilm formation | up-regulatory effect | significant effect | minimal effect | nearly identical | greatest up-regulatory effect in both media | time of statistically significant increase in current output ([1]; TSB, 16 mM tyrosine, 400 million cells per mL, FIG. 14 A): between four and six hours; time of statistically significant increase in current output ([1]; TSB, 4 million cells per mL, FIG. 12 A): between six and eight hours; pyocyanin produced, 16 mM tyrosine versus 17.6 mM valine ([1]; TSB, initial cell concentrations above 4 million cells per mL): more pyocyanin than 17.6 mM valine; up-regulatory effect on pyocyanin production compared with the other amino acids tested ([1]; listed as Tyrosine): largest up-regulatory effect of the six amino acids tested |
| O=C(O)[C@@H]1CCCN1 [proline] |  | up-regulate biofilm formation |  |  |  |  |  |  |
| CC(C)C[C@H](N)C(=O)O [leucine] |  | up-regulate biofilm formation |  |  |  |  |  |  |
